In PubChem BioAssay AID179 (DTP/NCI, 2004):
Active and inactive are the calls of the source.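 How the source made its calls: active means compounds giving half or more protection of infected cells from virus-caused growth loss, again on retest; inactive means the rest.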 Where a SMILES comes first, the peptide text is derived from it. Bridges are numbered along the chain shown (N, C = ends). Roman numbers before positions name the chains, in order.

Test system: CEM cells HIV-1 protection, formazan growth assay
Test: NCI AIDS Antiviral Assay
Settings: for IC50: measured here: growth of uninfected CEM cells
How it was run: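 Protection of CEM cells against HIV-1 measured as cell growth via soluble formazan read-out, with five concentrations tested on both infected and uninfected cells; failure to protect may reflect toxicity.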

Compound	outcome	EC50	IC50
Cc1ccc(O)c(N=Nc2ccc(S(=O)(=O)O)cc2)n1	inactive	–	–
O=C1C(c2ccccc2)=C2C(=C1c1ccccc1)c1cccc3cccc2c13	inactive	–	–
CCOC1(OCC)N=C(N)C2(C#N)C3(C(=O)N(C(C)C)N=C3C)C12C#N (centres undefined)	–	> 200 µM	166 µM
COc1cccc(C2=NC(C(C)(C)C)CO2)c1-c1ccccc1C1OCCO1 (centres undefined)	–	> 339 µM	> 339 µM
Cn1nc(-c2ccccc2)c(C(=O)/C=C/c2ccccc2)c(N2CCCCC2)c1=O	–	> 24 µM	> 24 µM
C1CN2CCC1C1(C2)SSC2(CN3CCC2CC3)S1 (centres undefined)	–	> 200 µM	> 200 µM
CC(C)C(NC(=O)C(N)CSSCC(N)C(=O)NC(C(=O)O)C(C)C)C(=O)O (stereo not drawn) (I: H-Cys-Val-OH / II: H-Cys-Val-OH; disulfide I:1-II:1; configuration not given here)	inactive	–	–
C=CC1(C)CCC(C(C)C(=O)C(C=C(C)C)OC(C)=O)C12C(=O)Oc1ccccc1C2=O (centres undefined)	–	> 30.9 µM	29.5 µM
O=C(O)CCC1CCc2cccc3oc(C(=O)O)c1c23 (centres undefined)	inactive	–	–
O=C(Cc1ccccc1)NNc1nc(NNC(=O)c2ccncc2)nc(Nc2ccc([N+](=O)[O-])cc2)n1	–	> 100 µM	11.5 µM
CC(C)(C#N)C(C)(C)SSC(C)(C)C(C)(C)C#N	–	> 178 µM	> 178 µM
C[n+]1ccccc1/C=N/O	–	> 200 µM	> 200 µM
Nc1ccc(/C=C\c2ccc([N+](=O)[O-])cc2S(=O)(=O)O)c(S(=O)(=O)O)c1	–	> 200 µM	> 200 µM
C/C=C1\CN2CCc3c([nH]c4ccccc34)C2C=C1CCO (centres undefined)	–	> 170 µM	> 170 µM
Nc1[nH]c(=S)nc2nc3c(c(-c4ccccc4)c12)CCCC3	–	> 50.1 µM	> 50.1 µM
Cc1ccc(S(=O)(=O)N(CCN2C(=O)c3ccccc3C2=O)c2cc3c4c(c2)Oc2cc(N(CCN5C(=O)c6ccccc6C5=O)S(=O)(=O)c5ccc(C)cc5)cc5c2C4(C)c2c(cc(N(CCN4C(=O)c6ccccc6C4=O)S(=O)(=O)c4ccc(C)cc4)cc2O5)O3)cc1	–	> 100 µM	64.6 µM
O=C(NC1C=Nc2ccc(Cl)cc2NC1=O)c1ccc2ccccc2c1 (centres undefined)	–	> 200 µM	> 200 µM
CC(=O)c1ccc2c(c1)oc(=O)n2CCN(C)C	–	> 200 µM	141 µM
Cc1cc(S(=O)(=O)Nc2nc(N)nc(N3N=CCC3C)n2)c(S)cc1Cl (centres undefined)	–	55 µM	> 200 µM
Clc1ccc(NC2=NCCN=C(Nc3ccc(Cl)c(Cl)c3)SS2)cc1Cl	–	> 11.2 µM	> 11.2 µM
N#CC(C#N)=Cc1cccc(Oc2ccccc2)c1	–	> 29.5 µM	> 29.5 µM

Compound	outcome	EC50	IC50
O=S(=O)(O)NCC1OC2OC3C(CNS(=O)(=O)O)OC(OC4C(CNS(=O)(=O)O)OC(OC5C(CNS(=O)(=O)O)OC(OC6C(CNS(=O)(=O)O)OC(OC7C(CNS(=O)(=O)O)OC(OC8C(CNS(=O)(=O)O)OC(OC1C(OS(=O)(=O)O)C2OS(=O)(=O)O)C(OS(=O)(=O)O)C8OS(=O)(=O)O)C(OS(=O)(=O)O)C7OS(=O)(=O)O)C(OS(=O)(=O)O)C6OS(=O)(=O)O)C(OS(=O)(=O)O)C5OS(=O)(=O)O)C(OS(=O)(=O)O)C4OS(=O)(=O)O)C(OS(=O)(=O)O)C3OS(=O)(=O)O (centres undefined)	–	> 50.1 µM	> 50.1 µM
C[N+](C)(C)CC(=O)N/N=C(/CC(=O)CC(C1=C(O)c2ccccc2OC1)c1ccccc1)C(=O)Nc1cccc(Cl)c1 (centres undefined)	–	> 151 µM	> 151 µM
O=C1c2cc(Br)ccc2OC2CCON12 (centres undefined)	inactive	–	–
Cc1ncc([N+](=O)[O-])n1CCn1ccnc1[N+](=O)[O-]	–	> 200 µM	> 200 µM
O=C(O)c1c(-c2cccc3ccccc23)sc(-c2cccc3ccccc23)c1C(=O)O	inactive	–	–
Nc1nc2ncn(CCO)c2c(=O)[nH]1	–	> 93.3 µM	> 93.3 µM
CCOc1ccc(O)cc1[P+](c1ccccc1)(c1ccccc1)c1ccccc1	inactive	–	–
CCn1c(=O)c2c3ccc(O)cc3[nH]c2c2ccc(O)cc21	–	> 200 µM	38.9 µM
CC1(C=O)C(=O)CCC2(C)C3CC(=O)OC3CCC12 (centres undefined)	inactive	–	–
Cc1ccc(/C=C2\N=C(N3CCCCC3)NC2=O)cc1	–	> 200 µM	191 µM
CCOC(=O)C[P+](c1cccc(OC)c1)(c1cccc(OC)c1)c1cccc(OC)c1	–	> 200 µM	46.8 µM
CCOC(=O)[C@@H]1ON2O[C@H](OC3CCCC3(c3ccccc3)c3ccccc3)C[C@H]3OC(=O)[C@@H]1C32 (some centres undefined)	–	> 200 µM	32.4 µM
N#C/C(C(=O)NCc1ccccc1)=C(/N)N1CCCC1	–	> 200 µM	> 200 µM
COc1ccc(C(C)NNC(=O)c2ccncc2)cc1F (centres undefined)	–	> 200 µM	112 µM
O=C1c2ccccc2C2(c3ccc(Cl)cc3)N[C@H]3CCCC[C@@H]3N12 (some centres undefined)	–	> 200 µM	141 µM
CCOC(=O)SC1=NC(C)=CC(C)(C)S1	–	53.7 µM	145 µM
Nc1nc(NCc2ccccc2)cc(NCc2ccccc2)n1	–	> 20 µM	2.75 µM
Cc1ccc(S(=O)(=O)N/N=C2\C=C[C@]3(CC2)C(=O)N(C)c2ccccc23)cc1	–	> 200 µM	102 µM
COC(=O)/C=C(C)/C=C/c1cc(C(C)=O)c(C)o1	–	> 145 µM	102 µM
COC(=O)C(=O)C(C(=O)C(=O)Nc1ccc(C)cc1C)c1nc2ccccc2[nH]c1=O (centres undefined)	–	> 23.4 µM	> 23.4 µM
COc1cc2c(cc1O)CC13CCC(=O)N1CCc1cc(OC)c(O)c-2c13 (centres undefined)	inactive	–	–

Compound	outcome	EC50	IC50
CCOC(=O)C(=O)Cc1cc(=O)n(C)c2ccccc12	–	> 200 µM	170 µM
CC(=O)CCNc1ccc(-c2cc(-c3ccc(N(C)C)cc3)nc3ccc4ccccc4c23)cc1	–	> 200 µM	102 µM
c1ccc2c3c([nH]c2c1)[C@H]1C2CCCCN2CN1CC3 (some centres undefined)	–	> 676 µM	214 µM
N#CC1(C#N)C2=C(CCCC2)NC(c2ccc(Br)cc2)C1(C#N)C#N (centres undefined)	–	> 0.2 µM	0.0813 µM
COc1cc(OC)c2c(=O)c(OC)c(-c3ccc4c(c3)OCO4)oc2c1OC	–	> 200 µM	> 200 µM
COC(c1ccc(C(C)(C)C)cc1)(c1ccc(C(C)(C)C)cc1)c1cc(C(O)(c2cc(C(OC)(c3ccc(C(C)(C)C)cc3)c3ccc(C(C)(C)C)cc3)c(C)cc2C)c2cc(C(OC)(c3ccc(C(C)(C)C)cc3)c3ccc(C(C)(C)C)cc3)c(C)cc2C)c(C)cc1C	inactive	–	–
C=CCCC(=O)C(=[N+]=[N-])C(=O)CCC(=O)c1ccccc1	–	> 200 µM	20 µM
O=C1NC2C(=CC(O)C(O)C2O)c2cc3c(cc21)OCO3 (centres undefined)	–	> 8.51 µM	0.174 µM
CC1=C(C2CC(C)CC(OCOCc3ccccc3)O2)C(C)(C)CCC1 (centres undefined)	–	> 20 µM	> 20 µM
COc1ccc(C(=O)O/N=C2/CCCCC2CN(C)C)cc1 (centres undefined)	inactive	–	–
CCCCCCCCCCCCCCCCNc1nc(=O)n(C2CC(N=[N+]=[N-])C(CO)O2)cc1C (centres undefined)	–	> 200 µM	9.33 µM
Cc1ccc(C(=O)Oc2ccccc2)cc1N=NN(C)C	–	> 25.7 µM	> 25.7 µM
O=C1NC(N2CCOCC2)=N/C1=C\c1cccs1	–	> 200 µM	> 200 µM
CC(=O)Nc1ccc(S(=O)(=O)[N-]C2C(=O)c3ccccc3C(=O)C2[n+]2ccccc2)cc1 (centres undefined)	–	> 200 µM	37.2 µM
CC/C(=C(\c1ccccc1)c1ccc(OCC[N+](C)(C)C)cc1)c1ccccc1	inactive	–	–
O=C(/C=C/c1c(O)c2ccccc2[nH]c1=O)CC(=O)C(=O)Nc1cccc(O)c1	–	> 174 µM	> 174 µM
C#CCN(N=O)C(=O)NCCCC(NC(C)=O)C(=O)NCc1ccccc1 (centres undefined)	–	> 676 µM	51.3 µM
CCN(CC)C(=S)SCC(=O)Nc1nc2c(s1)CCCC2	–	> 20.9 µM	> 20.9 µM
N/C(=N\N=C/c1cc(Cl)cc(Cl)c1O)NO	inactive	–	–
COC1=CC(=O)[C@@]2(OC)C(=O)c3c(cc4cc(O)c(C(O)OC)c(C)c4c3O)C(=O)[C@@]2(O)C1OC1OC(C)C(OC)C(OC)C1OC (some centres undefined)	–	> 93.3 µM	64.6 µM
CC(C)(c1cc(Cl)c(O)c(CN2CCOCC2)c1)c1cc(Cl)c(O)c(CN2CCOCC2)c1	–	> 200 µM	107 µM

Compound	outcome	EC50	IC50
O=[N+]([O-])c1ccc(-c2noc(-c3ccc(Cl)cc3)c2C2=NCCCN2)cc1	–	> 35.5 µM	> 35.5 µM
CN1Cc2cc3c(cc2-c2ccccc21)OCO3	–	269 µM	282 µM
O=C(CCC(=O)c1ccsc1)c1ccsc1	–	> 200 µM	> 200 µM
CC(C)(C)NNc1c([N+](=O)[O-])cnn(-c2ccccc2)c1=O	–	> 49 µM	0.251 µM
CSC12c3cc(C)n(-c4ccc(I)cc4)c3CC(C)(C)CN1C(=O)C2Oc1ccccc1 (centres undefined)	–	> 200 µM	75.9 µM
Cc1cccc2c(=O)c3cccc([C@@H](C)C(=O)O)c3oc12	–	> 200 µM	67.6 µM
CC(=O)n1c(O)c(N=Nc2ccccc2[N+](=O)[O-])c2ccccc21	–	> 200 µM	> 200 µM
O=C(O)CC1OCC=C2CN3CCC45c6ccccc6NC4C1C2CC35 (centres undefined)	inactive	> 85.1 µM	> 85.1 µM
c1cnc2nc3c4ccccc4c4ccccc4c3nc2c1	–	> 35.5 µM	> 35.5 µM
CCN(CC)CCC(=O)c1ccc(Oc2ccc(F)cc2)cc1	–	> 200 µM	22.9 µM
Clc1cccc2[nH]ncc12	–	> 200 µM	> 100 µM
CN(C)c1nc2n(CCO)c(-c3ccccc3)c(-c3ccccc3)nc-2c(=O)n1	–	30.9 µM	> 100 µM
CC(=O)C1CC2=C(CCC1=O)CCC1(CC2)OCCO1 (centres undefined)	inactive	–	–
CC(=O)NNC(=S)/N=C\C(C(=O)c1ccccc1)=C(/O)c1ccccc1	–	> 200 µM	> 200 µM
Cn1c(=O)n2n(c1=O)C1C3C4C3C3C5(COCC135)C42 (centres undefined)	–	> 200 µM	> 200 µM
Cn1nc(-c2ccccc2)c(C(=O)/C=C/c2ccccc2)c(N2CCOCC2)c1=O	–	> 79.4 µM	> 79.4 µM
O=S(=O)(F)c1ccc(C[P+](c2ccccc2)(c2ccccc2)c2ccccc2)cc1Cl	–	> 200 µM	97.7 µM
Cc1nn(C(=O)c2ccccc2O)c2c1C(c1ccc3ccccc3c1O)SC(N)=N2 (centres undefined)	–	> 2 µM	1.38 µM
